Results published in patent US20230135366A1, “LIPOIC ACID CHOLINE ESTER COMPOSITIONS AND METHODS TO STABILIZE INTO […] RELEVANT DRUG PRODUCTS” (NOVARTIS AG, priority 2016, published 2023).
Like-named read-outs stand apart in the source and are kept apart here.

Columns and labels:
[1] = HPLC related compounds / related substances (oxidized LACE, lipoic acid, total impurities) of LACE solutions, mixing and stability studies; format: physicochemical
Procedure: Each of the solutions was also measured for degradants of lipoic acid choline ester. As mentioned earlier, the degradation mechanism of LACE is oxidative and hydrolytic, resulting in oxidized and hydrolyzed species.
• a) HPLC Method Setup: The HPLC assay consisted of a 50 minute mobile phase gradient made up of (A) 0.05M sodium phosphate monobasic, 0.005M 1-heptane sulfonic acid sodium salt, 0.2% v/v triethylamiue, adjusted to pH 4.5 with phosphoric acid; and (B) acetonitrile. The analytical column used is a YMC Pack ODS AO (4.6×250 mm, 5 μm, 120 Å), P/N AQ125052546WT; the analytical detection wavelength is 225 nm.
The eve dropper bottles with the two formulations were stored at 25° C. in a temperature-controlled incubator, and 0.5 mL (about 10 drops) sampled at each time point for analysis of related substances (by HPLC). The nitrogen blanket was not replenished, so some air got into the bottle with each sampling. This experiment was an early investigation of stability at room temperature (25±0.1° C.) with no protection from oxygen with continued sampling.
For the stability studies on both the clinical LACE-Chloride and the prototype LACE-Iodide formulation with a 1:1 molar ratio of HP-B-CD to LACE, the formulations were filtered, filled into LDPE eye dropper bottles, blanketed with nitrogen, and then placed inside barrier foil pouches with an oxygen scavenger. It is likely that some oxygen was still present in the pouch to start. After the first time point following T=0, however, the rise in oxidized LACE species stops, even at elevated temperatures, likely due to depletion of the remaining oxygen (FIG. 20).

[2] = tested on: bovine calf cornea
Procedure: (§1) LACE is delivered from these formulations as one of two salts: LACE-chloride and LACE-iodide. […] Therefore, both LACE and lipoic acid concentrations were assayed at each time point to evaluate permeability.
(§2) • a. 6 bovine eyeballs are dissected in a sterile laminar flow hood. • b. The corneas are extracted from the eyeball, briefly rinsed in sterile double-distilled water, and submerged in 3 mL of glutathione buffer (0.1% glutathione, oxidized, 6 mM sodium phosphate, pH 7, sterile-filtered) in a sterile culture dish. • c. The corneas are kept at 5° C. and used within 24 hours of excision. • d. Six 5 mL Franz vertical diffusion cells are cleaned with distilled water and isopropanol and air dried in a laminar flow cabinet prior to set up. • e. A small stir bar is placed within the receptor fluid chamber. The bottle of receptor fluid (5 mM phosphate-buffered saline with 0.1% Tween 20, pH 7.4, sterile-filtered) is tared on an analytical balance, and 4.5 mL of it is added to each Franz cell. The exact weight of the starting receptor fluid is recorded. • f. The cornea is gently rinsed of glutathione buffer with receptor fluid, and is placed on the donor pedestal. The donor chamber is placed on top of the cornea, and the entire assembly is fastened to the pedestal with a metal clip. At this point, 0.5 mL of additional receptor fluid is added via the sampling arm, until the fluid level reaches the point marked on the arm with a black line. The weight of this addition is also recorded. • g. The Franz diffusion apparatus is connected to a heater unit, and the temperature is raised to 37° C. When that temperature is reached, the formulation (“the donor solution”) is added to the donor chamber. • h. 0.2 mL of donor solution is added. Both the donor chamber and sampling arm are covered by paraffin when not in use to prevent evaporation. • i. Sampling is done via Drummond pipet, and only through the sampling arm. 200-300 μL of receptor fluid is sampled from each cell at each time point. • j. The sample is added to an amber glass HPLC vial with 0.3 mL glass insert, and is weighed. […]

[3] = RP-HPLC (UV / ELSD) measurement of LACE micellar / associative (aggregated) species; format: physicochemical; conditions: for equilibrium concentration of aggregates (% of the API peak): aqueous solution
Source text: While searching for causes for irritation, it was discovered that LACE, when dissolved in water, forms micelles and micellar aggregates, common to compounds that are amphiphilic in nature. As definition, examples of micelle-forming compounds are phosphatidyl choline, pegylated phosphatidyl choline, PEG-stearate, […], etc. While the micelle-formation phenomenon of LACE is not unexpected due to the amphiphilic nature of the molecule, the formation of these aggregates at lower temperatures were surprising. The presence of the aggregates was measured by a RP-HPLC method developed in-house. The measurement could be performed both with HPLC-UV and HPLC-ELSD. […] The equilibrium concentration of LACE Iodide aggregates are 39-41% of the API peak. In comparison, the equilibrium concentration of LACE chloride is <1%, after dispersion with agitated stirring.
• Two 200-g batches of 1.5% LACE Chloride were prepared at 25° C. after vehicle was deoxygenated with bubbled nitrogen. […] At time-points of 1 h, 3 h, 4 h, 6 h, 8 h, 9 h, and 24 h, about 5-15 mL was removed by syringe and sterile-filtered into eye-dropper bottles (5 mL/bottle), without nitrogen overlay in the bottle (apparatus was in use for the bulk batches). • Samples of all time-points were diluted to 10 mg/g, and then injected for RP-HPLC analysis with ELK.) detection within 30 minutes of removal from the bulk solution. • After the 24-hour time-point, bulk solutions were sterile-filtered, and each divided into two ˜50 mL portions—one held at 5° C., the other 50-mL portion held at 25° C. All portions were overlaid with nitrogen blown into the vessel. • At the end of the additional 24-hour hold time, each portion was filled into eye-dropper bottles with a nitrogen overlay in the bottle.
The final diluted LACE concentration was targeted to the level appropriate for RP-HPLC analysis (12.8 mg/mL of LACE-Iodide).
The approach was to generate complete inclusion complexes of LACE-Iodide in HP-B-CD, thus preventing any opportunity of aggregation of LACE molecules. Several batches of formulation were prepared using varying molar ratios of LACE-Iodide to HP-B-CD and the growth of aggregative species assessed over time. The formulations were stored at 5° C. The formation of associative species as measured by reverse phase HPLC was then reported as the area percent relative to the main LACE peak area.

[4] = tested on: bovine calf cornea; test: Corneal permeability, Franz Cell Diffusion apparatus; conditions: Study 1
Procedure: as §1, §2

[5] = General properties of LACE (solubility, solution pH, Log P, hygroscopicity); format: physicochemical; conditions: for solubility: read-out: Solubility Profile
[6] = tested on: ocular surface; test: Ocular irritation in rabbit irritation model (rabbit Draize model); format: in vivo
Source text: Another issue that confounded the pharmaceutical development of LACE ophthalmic solutions was incidences of ocular surface irritation observed in-vivo in a rabbit irritation model. The invention details unexpected parameters that contributed to, or caused ocular irritation and processes to eliminate or minimize these parameters. These parameters were not related to the formulation composition or properties of the drug substance, factors that normally correlated or attributed to ocular irritation.
FIGS. 12A and 12B generally provide a snapshot of the correlation of irritation to the micellar LACE species over a number of batches compounded.
Example 16 established the correlation between concentration of associative species and ocular irritation in an in-vivo model (rabbit Draize model).

[7] = Appearance of ophthalmic solution in stability studies; format: physicochemical; conditions: API (Lot# 011510)
Procedure: in an effort to stabilize the drug formulation further, systematic stability studies (5° C., 25° C. and 40° C.) on mid-scale R&D batches were undertaken with bottled EV06 Ophthalmic Solution in the presence and absence of oxygen scavenging packets contained in zip-lock, vapor impermeable foil pouches.

[8] = Osmolality of formulation; format: physicochemical
Procedure: • The requisite osmolality range for drug-containing formulations and placebo is 280-320 mOsm/kg. Preferably, all LACE formulations need to he within 290-310 mOsm/Kg. • Since LACE has contributions to osmolality, each formulation will have varying concentrations of glycerol to achieve the requisite osmolality.
The target for Total Osmolality was 300 mOsm/kg.
Accordingly, a full series of solutions was prepared with slightly altered target osmolalities for the solutions without LACE, and therefore different target glycerol contents. All solutions were prepared using the same Alanine/Benzalkonium Chloride, pH 4.5 stock solution used in the placebos, so that the final composition was consistently: • 0.5% (5 mg/g) Alanine • 0.005% (0.05 mg/g) Benzalkonium Chloride • Small amounts of 1N Sodium Hydroxide, 1N Hydrochloric Acid, to adjust pH to 4.5 • Water for Inhalation (added to final weight of 5.0 g per formulation)

[9] = API (drug substance), lot AC-LACE-05-39 stored at 5 °C
[10] = Table 16-3, API (drug substance)
[11] = Table 17-1, API (drug substance)
[12] = Table 17-2, API (drug substance)
[13] = Table 17-3, API (drug substance)
[14] = Table 18-1, API (drug substance)
[15] = Table 18-2, API (drug substance)
[16] = API (Lot# 011510), RS analyzed Mar. 22, 2016

C[N+](C)(C)CCOC(=O)CCCC[C@@H]1CCSS1.[Cl-] [API]
Related Substances RRT 1.00 API ([1]; API (drug substance)): 99.13 Area % | Related Substances RRT 1.65 ([1]; API (drug substance)): 0.34 Area % | Related Substances RRT 4.05 Lipoic Acid ([1]; API (drug substance)): 0.13 Area % | Related Substances, RRT 0.49 ([1]; API (drug substance)): 0.19 Area % | Related Substances, RRT 0.61 Oxidized Lace ([1]; API (drug substance)): 0.04 Area % | Related Substances, RRT 0.68 Oxidized Lace ([1]; API (drug substance)): 0.04 Area % | Related Substances, RRT 1.36 ([1]; API (drug substance)): 0.34 Area % | Related Substances, RRT 1.52 ([1]; API (drug substance)): 0.34 Area % | Related Substances, RRT 1.73 ([1]; API (drug substance)): 0.17 Area % | Related Substances, RRT 1.86 ([1]; API (drug substance)): 0.17 Area % | Related Substances, RRT 4.11 Lipoic Acid ([1]; API (drug substance)): 0.13 Area % | Total Impurities ([1]; API (drug substance)): 0.87 Area % | Related Substances RRT 0.51 ([1]; API (drug substance), lot AC-LACE-05-21 stored at 5 °C): 0.19 Area % | Related Substances RRT 0.51 [1, 9]: 0.10 Area % | Related Substances RRT 2.28 [1, 9]: 0.17 Area % | Related Substances RRT 2.28 ([1]; API (drug substance), lot AC-LACE-05-39 stored at 25 °C): 0.13 Area % | Related Substances RRT 0.51 [1, 10]: 0.10 Area % | Related Substances RRT 0.68 [1, 10]: 0.04 Area % | Related Substances RRT 1.00 [1, 10]: 99.13 Area % | Related Substances RRT 1.65 [1, 10]: 0.34 Area % | Related Substances RRT 2.28 [1, 10]: 0.17 Area % | Related Substances RRT 4.05 [1, 10]: 0.13 Area % | Total Impurities [1, 10]: 0.87 Area % | Related Substances RRT 0.50 [1, 11]: 0.20 Area % | Related Substances RRT 0.59 [1, 11]: 0.04 Area % | Related Substances RRT 1.27 [1, 11]: 0.34 Area % | Related Substances RRT 1.42 [1, 11]: 0.17 Area % | Related Substances RRT 3.00 [1, 11]: 99.13 Area % | Related Substances RRT 3.07 [1, 11]: 0.13 Area % | Total Impurities [1, 11]: 0.87 Area % | Related Substances RRT 0.50 [1, 12]: 0.20 Area % | Related Substances RRT 0.59 [1, 12]: 0.04 Area % | Related Substances RRT 1.00 [1, 12]: 99.13 Area % | Related Substances RRT 1.27 [1, 12]: 0.34 Area % | Related Substances RRT 1.42 [1, 12]: 0.17 Area % | Related Substances, Lipoic Acid (RRT not given) [1, 12]: 0.13 Area % | Total Impurities [1, 12]: 0.87 Area % | Related Substances RRT 0.50 [1, 13]: 0.20 Area % | Related Substances RRT 0.59 [1, 13]: 0.04 Area % | Related Substances RRT 1.00 [1, 13]: 99.13 Area % | Related Substances RRT 1.27 [1, 13]: 0.34 Area % | Related Substances RRT 1.42 [1, 13]: 0.17 Area % | Related Substances RRT 3.07 Lipoic Acid [1, 13]: 0.13 Area % | Total Impurities [1, 13]: 0.87 Area % | Related Substances RRT 0.51 [1, 14]: 0.10 Area % | Related Substances RRT 0.68 [1, 14]: 0.04 Area % | Related Substances RRT 1.00 API [1, 14]: 99.13 Area % | Related Substances RRT 1.65 [1, 14]: 0.34 Area % | Related Substances RRT 2.28 [1, 14]: 0.17 Area % | Related Substances RRT 4.05 Lipoic Acid [1, 14]: 0.13 Area % | Total Impurities [1, 14]: 0.87 Area % | Related Substances RRT 0.51 [1, 15]: 0.10 Area % | Related Substances RRT 0.68 [1, 15]: 0.04 Area % | Related Substances RRT 1.00 API [1, 15]: 99.13 Area % | Related Substances RRT 1.65 [1, 15]: 0.34 Area % | Related Substances RRT 2.28 [1, 15]: 0.17 Area % | Related Substances RRT 4.05 Lipoic Acid [1, 15]: 0.13 Area % | Total Impurities [1, 15]: 0.87 Area %

C[N+](C)(C)CCOC(=O)CCCCC1CCSS1.[I-] (stereo not shown) [LACE Iodide]
overall percent of drug permeated [2]: 3-7% | permeated species [2]: almost entirely lipoic acid | equilibrium concentration of aggregates (% of the API peak) [3]: 39-41% | aggregated species (% of the API) ([3]; at the end of 8 hours of mixing): ≤ 39% | % Associative Species at T0 ([3]; direct dissolution: Buffer with 0.6% NaCl, 1.5% PG): 40.9% | % Associative Species at T0 ([3]; direct dissolution: Buffer with 1.8% NaCl): 34.7% | % Associative Species at T0 ([3]; direct dissolution: Ethanol (78% final), then Buffer (22%)): 0.0% | % Associative Species at T0 ([3]; direct dissolution: Propylene Glycol (10%), then Buffer (90%)): 11.7%

C[N+](C)(C)CCOC(=O)CCCC[C@@H]1CCSS1 [LACE Chloride, Lipoic Acid Choline Ester Chloride]
permeated species [4]: somewhat more intact LACE permeated | Hygroscopicity [5]: Highly hygroscopic | Solution pH [5]: 7-7.5 | logP [5]: < 2 | solubility ([5]; in water): > 50 mg/mL | solubility ([5]; organic solvent or mixture, in acetonitrile): > 4 mg/mL | ocular irritation ([6]; solution formulated at refrigerated temperatures): extremely irritating | equilibrium concentration of aggregates (% of the API peak) ([3]; after dispersion with agitated stirring): < 1% | percent micellar species (% of the main LACE API Peak) ([3]; formulated under argon and refrigerated conditions): 8-10%

C[N+](C)(C)CCOC(=O)CCCC[C@@H]1CCSS1.[I-] [API (Lot# 011510)]
Appearance [7]: Complies | API Related Substances, Oxid. LACE RRT 0.48 [1, 16]: 0.08% | API Related Substances, Oxid. LACE RRT 0.52 [1, 16]: 0.04% | API Related Substances, RRT 1.74 [1, 16]: 0.24% | API Related Substances, RRT 2.00 [1, 16]: 0.20% | API Related Substances, Total Imp. [1, 16]: 0.56%

C[N+](C)(C)CCOC(=O)CCCC[C@@H]1CCSS1 [LACE, lipoic acid choline ester]
additional osmolality for every 1% LACE, average ([8]; earlier formulations): 48 mOsm/kg | additional osmolality for every 1% LACE ([8]; earlier formulations, range): 44-55 mOsm/kg | effect of LACE on osmolality for every 1% ([8]; from Table 6 solutions): 57-60 mOsm/kg | ocular irritation ([6]; compounded at room temperature): comfortable and non-irritating
